Measurements from US11464802B2, “3-substituted piperidine compounds for Cbl-b inhibition, and use thereof” (Nurix Therapeutics, Inc., priority 2019, dated 2022).
pIC50: −log10 of the molar value.

Tests used:
[1] = tested on: primary human total T-cells; assay: Primary human total T-cell activation: CD25 surface staining, Biological Example 9; format: cell-based; conditions: 48 hours, fold change over baseline; for fold induction at 0.3 µM: inhibitor 0.3 μM; for fold induction at 0.3 µM / fold induction at 3 µM: Table 9-1; for fold induction at 1 µM: inhibitor 1 μM; for fold induction at 3 µM: inhibitor 3 μM
[2] = tested on: primary human total T-cells; assay: Primary human total T-cell activation: IL-2 secretion, Biological Example 13; format: cell-based; conditions: 48 hours, fold change over baseline; for fold induction at 0.3 µM: inhibitor 0.3 μM; for fold induction at 0.3 µM / fold induction at 3 µM: Table 13-1; for fold induction at 1 µM: inhibitor 1 μM; for fold induction at 3 µM: inhibitor 3 μM
[3] = molecular target: T1, Cbl-b (Homo sapiens (Human), UniProt Q13191); assay: Cbl-b displacement assay (Cbl-b inhibition assay), Biological Example 8; format: binding; conditions: Table 8-1
In short: (§1)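 Biotinylated Avitag-Cbl-b (residues 36-427) at 0.5 nM ("High") or 0.125 nM ("Low") final was preincubated 1 h at room temperature with compound (1% DMSO) in 20 mM HEPES pH 7.5, 150 mM NaCl, 0.01% Triton X-100, 0.01% BSA, 0.5 mM TCEP. Then 150 nM BODIPY FL inhibitor probe (~EC40) plus 2 nM streptavidin-terbium, 1 h; TR-FRET 520/620 read, IC50 derived.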

[4] = tested on: TC-1 cell tumor; assay: Cbl-b inhibitor in combination with HPV16 E7 cancer vaccine in mice bearing syngeneic TC-1 tumor, Biological Example 11; format: in vivo, C57BL/6 mice; conditions: HPV16 E7 vaccine SC + Compound No. 53 180 mg/kg PO BID; TILs on day 10; percent increase relative to vaccine without Cbl-b inhibitor
Experimental: In brief, the combination therapy was tested in C57BL/6 mice bearing a syngeneic TC-1 cell tumor. TC-1 cells were derived from primary murine lung cells, which had been transfected with human papillomavirus strain 16 (HPV16) early proteins 6 and 7 (E6 and E7) and an activated human c-Ha-ras oncogene (Lin et al., Cancer Research, 56: 21-26, 1996). Either 2.5×10^4 (first study) or 5.0×10^4 (second study) TC-1 cells (obtained from Johns Hopkins University) were injected subcutaneously into the mid flank of each mouse. Tumors were allowed to grow to 50-100 mm^3 at which time the animals were randomized and treatment was begun (day 0).
The HPV16 E7 cancer vaccine (Shrimali et al., Cancer Immunol Res, 5: 755-766, 2017) included 100 μg of a synthetic peptide with the amino acid sequence of a CTL epitope of residues 49-57 of E7 ([…] set forth as SEQ ID NO:2), mixed with 20 μg of a synthetic peptide with the amino acid sequence of a Th epitope known as PADRE (aK-Cha-[…]a set for as SEQ ID NO:3, where “a” is D alanine and “Cha” is L-cyclohexylalanine) and 20 μg of a Quil-A® adjuvant marketed by Brenntag Biosector A/S, which contains purified quillaja saponins. The HPV16 E7 vaccine or Dulbecco's phosphate-buffered saline (DPBS) was administered subcutaneously (SC) on days 2 and 9 (=day 16 and day 23 post TC-1 injection). The Cbl-b inhibitor was dissolved in a suitable formulation and administered at a suitable dose level and frequency as informed by prior pharmacokinetic and tolerability studies. In initial studies, the Cbl-b inhibitor (Compound No. 53) in a suitable vehicle, or the vehicle, was administered orally (PO) at a dose of 180 mg/kg twice per day (BID) beginning on day 0 (=day 14 post TC-1 injection). In further studies, a Cbl-b inhibitor formulation was administered orally (PO) or parenterally (e.g., IV, IP, SC, or intratumorally at one to three injection sites per tumor). In addition to the test group of mice who received the combination therapy (the Cbl-b inhibitor formulation plus the HPV16 E7 vaccine), the study included control groups of mice who received: the vehicle formulation plus DPBS, the Cbl-b inhibitor formulation plus DPBS, or the vehicle formulation plus the HPV16 E7 vaccine.
Tumor size was recorded twice a week starting on day 0 (day 14 post TC-1 injection) and continued through duration of dosing until humane endpoints were reached between day 33 and day 42 (=between day 47 and day 56 post TC-1 injection). The level of response was evaluated by comparing tumor growth in the test mice versus the control mice (10 mice per group). In addition, the level of immune activation was assessed by collecting tumors for analysis of tumor infiltrating lymphocytes (TILs) on day 10 (=day 24 post TC-1 injection) in test and control mice (6 mice per group). TILs were processed for flow cytometric analysis using standard methods to determine antigen specificity, expression of cell type-specific markers, and expression of activation markers such as granzyme B, CD25, CD69, PD-1, and LAG3. In further experiments, PBMCs and/or splenocytes were also collected and processed. Augmentation of the anti-tumor immune response by the combination therapy was assessed by comparing the relative percentage of total or E7-specific (tumor antigen-specific) CD8+ T cells, and the relative levels of expression of activation markers on immune cells in mice of the test and study groups.

[5] = tested on: primary human total T-cells; assay: Primary human total T-cell activation: IL-2 secretion, Biological Example 9; format: cell-based; conditions: 48 hours, fold change over baseline; for fold induction at 0.3 µM: inhibitor 0.3 μM; for fold induction at 0.3 µM / fold induction at 3 µM: Table 9-1; for fold induction at 1 µM: inhibitor 1 μM; for fold induction at 3 µM: inhibitor 3 μM
[6] = molecular target: T1, Cbl-b; assay: Cbl-b displacement assay (Cbl-b inhibition assay), Biological Example 12; format: binding; conditions: Table 12-1
In short: as §1

[7] = tested on: primary human total T-cells; assay: Primary human total T-cell activation: CD25 surface staining, Biological Example 13; format: cell-based; conditions: 48 hours, fold change over baseline; for fold induction at 0.3 µM: inhibitor 0.3 μM; for fold induction at 0.3 µM / fold induction at 3 µM: Table 13-1; for fold induction at 1 µM: inhibitor 1 μM; for fold induction at 3 µM: inhibitor 3 μM
[8] = tested on: primary human total T-cells; assay: Primary human total T-cell activation: CD25 surface staining, Biological Example 2; format: cell-based; conditions: 48 hours, fold change over baseline; for fold induction at 1 µM: inhibitor 1 μM
[9] = tested on: primary human total T-cells; assay: Primary human total T-cell activation: IL-2 secretion, Biological Example 2; format: cell-based; conditions: 48 hours, fold change over baseline; for fold induction at 1 µM: inhibitor 1 μM
[10] = molecular target: T1, Cbl-b; assay: Cbl-b displacement assay (Cbl-b inhibition assay), TR-FRET probe displacement, Biological Example 1; format: binding
In short: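 N-terminally Avitagged, biotinylated truncated Cbl-b (0.5 nM "High" or 0.125 nM "Low", final) pre-incubated 1 h at room temperature with compound (1% DMSO) in HEPES pH 7.5 buffer. Then 150 nM BODIPY FL probe (~EC40) plus 2 nM streptavidin-terbium for 1 h; TR-FRET read at 520/620 nm.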

[11] = anti-CD3/anti-CD28 co-stimulation
[12] = anti-CD3/anti-CD28 co-stimulation, Table 9-1, read-out: CD25 staining CD3/CD28 1 μM
[13] = anti-CD3 alone, Table 9-1, read-out: CD25 staining CD3 1 μM
[14] = anti-CD3/anti-CD28 co-stimulation, Table 13-1, read-out: IL-2 secretion CD3/CD28 1 μM
[15] = anti-CD3 alone, Table 13-1, read-out: IL-2 secretion CD3 1 μM
[16] = 0.125 nM Cbl-b final concentration (Low), read-out: Cbl-b IC50 (Low)
[17] = anti-CD3/anti-CD28 co-stimulation, Table 9-1, read-out: IL-2 secretion CD3/CD28 1 μM
[18] = anti-CD3 alone, Table 9-1, read-out: IL-2 secretion CD3 1 μM
[19] = anti-CD3/anti-CD28 co-stimulation, Table 13-1, read-out: CD25 staining CD3/CD28 1 μM
[20] = anti-CD3 alone, Table 13-1, read-out: CD25 staining CD3 1 μM
[21] = 0.5 nM Cbl-b final concentration (High), read-out: Cbl-b IC50 (High)
[22] = anti-CD3/anti-CD28 co-stimulation, inhibitor 0.3 μM

T1 sequence (Q13191 36-427): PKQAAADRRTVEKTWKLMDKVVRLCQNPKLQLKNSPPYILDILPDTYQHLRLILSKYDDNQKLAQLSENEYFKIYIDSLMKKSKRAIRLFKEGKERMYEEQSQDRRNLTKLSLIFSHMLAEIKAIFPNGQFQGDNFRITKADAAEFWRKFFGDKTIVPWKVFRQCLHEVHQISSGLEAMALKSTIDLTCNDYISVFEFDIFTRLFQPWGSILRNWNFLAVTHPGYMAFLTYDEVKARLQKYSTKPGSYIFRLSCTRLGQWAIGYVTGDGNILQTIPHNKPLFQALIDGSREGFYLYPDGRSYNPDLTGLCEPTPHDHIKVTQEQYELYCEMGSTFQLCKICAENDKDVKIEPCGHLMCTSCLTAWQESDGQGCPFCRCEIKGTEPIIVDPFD

| SMILES | fold induction at 0.3 µM [1, 11] | fold induction at 1 µM [1, 12] | fold induction at 1 µM [1, 13] | fold induction at 3 µM ([1]; anti-CD3 alone) | fold induction at 0.3 µM [2, 11] | fold induction at 1 µM [2, 14] | fold induction at 1 µM [2, 15] | fold induction at 3 µM ([2]; anti-CD3 alone) | fold induction at 0.3 µM [5, 11] | fold induction at 1 µM [5, 17] | fold induction at 1 µM [5, 18] | fold induction at 3 µM ([5]; anti-CD3 alone) | fold induction at 0.3 µM [7, 11] | fold induction at 1 µM [7, 19] | fold induction at 1 µM [7, 20] | fold induction at 3 µM ([7]; anti-CD3 alone) | other results |
| --- | --- | --- | --- | --- | --- | --- | --- | --- | --- | --- | --- | --- | --- | --- | --- | --- | --- |
| Cc1cc(C(=O)Nc2cccc(C3(Cc4nncn4C)COC3)c2)nc(C2CC2)n1 [Compound 53] | > 1.39 | > 1.39 | > 1.14 | > 1.14 | < 10 | 11 to 15 | 0.34 to 0.66 | 0.34 to 0.66 | < 10 | 10 to 15 | 0.34 to 0.66 | 0.34 to 0.66 | > 1.39 | > 1.39 | > 1.14 | > 1.14 | pIC50 [3, 16]: < 8.30; Mean increase in CD8+ T cells in TILs: % E7 positive T cells [4]: 33.7%; Mean increase in CD8+ T cells in TILs: % Granzyme positive (E7+ T cells) [4]: 7.86%; Mean increase in CD8+ T cells in TILs: % Granzyme positive (E7− T cells) [4]: 4.12%; Mean increase in CD8+ T cells in TILs: % LAG3 positive (E7+ T cells) [4]: 13.49%; Mean increase in CD8+ T cells in TILs: % LAG3 positive (E7− cells) [4]: 0.96%; Mean increase in CD8+ T cells in TILs: % PD1 positive (E7+ T cells) [4]: 14.97%; Mean increase in CD8+ T cells in TILs: % PD1 positive (E7− T cells) [4]: 20.23%; pIC50 [6, 16]: < 8.30 |
| C[C@H]1CCCN(Cc2cc3c(c(C(F)(F)F)c2)CN(c2cccc(C4(Cc5nncn5C)COC4)c2)C3=O)C1 [Compound 1, (S)-2-(3-(3-((4-methyl-4H-1,2,4-triazol-3-yl)methyl)oxetan-3-yl)phenyl)-6-((3-methylpiperidin-1-yl)methyl)-4-(trifluoromethyl)isoindolin-1-one] | > 1.39 | > 1.39 | > 1.14 | > 1.14 | > 15 | > 15 | > 0.66 | > 0.66 | > 15 | > 15 | > 0.66 | > 0.66 | > 1.39 | > 1.39 | > 1.14 | > 1.14 | pIC50 [3, 21]: > 9.00; fold induction at 0.3 µM [8, 22]: < 1.24; fold induction at 1 µM ([8]; anti-CD3/anti-CD28 co-stimulation, read-out: CD25 staining CD3/CD28 1 μM): < 1.24; fold induction at 1 µM ([8]; anti-CD3 alone, read-out: CD25 staining CD3 1 μM): < 1.04; fold induction at 3 µM ([8]; anti-CD3 alone, inhibitor 3 μM): < 1.04; fold induction at 0.3 µM [9, 22]: > 15; fold induction at 1 µM ([9]; anti-CD3/anti-CD28 co-stimulation, read-out: IL-2 secretion CD3/CD28 1 μM): > 15; fold induction at 1 µM ([9]; anti-CD3 alone, read-out: IL-2 secretion CD3 1 μM): > 0.66; fold induction at 3 µM ([9]; anti-CD3 alone, inhibitor 3 μM): > 0.66; pIC50 [6, 21]: > 9.00; pIC50 ([10]; 0.5 nM Cbl-b final concentration (High), read-out: Cbl-b activity IC50 (High)): > 9.00; pIC50 ([10]; Cbl-b concentration (High or Low) not given, read-out: IC50 values in the Cbl-b inhibition assay of Biological Example 1): > 9.00 |
